{
  "source": "patent US6503749B2",
  "about": "(Aventis Pharma S.A., priority 1998, dated 2003)",
  "data": [
    {"target": "T1, APAT (acetyl-coenzyme A pregnenolone acetyltransferase) (Saccharomyces cerevisiae, UniProt P53296)", "T1 construct": "the semi-purified APAT transfers the acetate on 3β-ol, delta^4 or delta^5-steroids; endogenous in cells; host or cells: S. cerevisiae strain TGY73.4; endogenous enzyme purified in house from cell lysate (ZnCl2 precipitation, DEAE-Sephacel, Phenyl-Sepharose, Q-Sepharose, cholate-Sepharose)", "T1 sequence (P53296 whole entry)": "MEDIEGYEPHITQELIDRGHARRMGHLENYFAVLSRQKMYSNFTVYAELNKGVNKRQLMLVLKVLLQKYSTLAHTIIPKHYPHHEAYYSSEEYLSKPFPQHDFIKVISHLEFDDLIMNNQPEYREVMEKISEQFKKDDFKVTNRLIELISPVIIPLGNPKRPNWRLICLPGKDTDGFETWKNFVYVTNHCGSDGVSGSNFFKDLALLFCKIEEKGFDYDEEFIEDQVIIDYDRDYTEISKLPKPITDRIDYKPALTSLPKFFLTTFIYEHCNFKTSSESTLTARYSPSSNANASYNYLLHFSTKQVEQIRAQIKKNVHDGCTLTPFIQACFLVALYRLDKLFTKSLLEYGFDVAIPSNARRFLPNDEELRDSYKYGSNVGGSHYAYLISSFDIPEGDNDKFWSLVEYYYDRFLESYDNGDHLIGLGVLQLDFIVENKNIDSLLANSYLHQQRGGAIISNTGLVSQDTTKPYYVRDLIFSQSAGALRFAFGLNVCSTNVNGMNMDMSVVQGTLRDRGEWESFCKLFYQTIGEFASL", "test": "Test of APAT enzyme activity (semi-purified APAT; substrate specificity and inhibition)", "assay_type": "biochemical, S. cerevisiae", "settings": "30 μM of each steroid tested and 100 μM of [3H]acetyl-CoA; semi-purified APAT", "experimental": "(§1) The pregnenolone is added in solution in 2 μl of tyloxapol (Sigma)/ethanol mixture (1:1) in a potassium phosphate buffer (20 mM) at pH 7.0. After incubation for 15 minutes at 30° C., the reaction is stopped by adding 2 ml of dichloromethane.\n(§2) The steroids are extracted with dichloromethane, then separated by reversed-phase high-performance liquid chromatography (hereinafter: RP-HPLC) in isocratic elution conditions with acetonitrile in an Ultrasphere ODS column (Beckman) at 45° C. on an HP 1090 chromatograph (Hewlett-Packard) connected to a FLO-One 500 radiodetector (Packard) which permits measurement of the amount of pregnenolone [^3H]acetate formed.\n(§3) One APAT unit is defined as the quantity of enzyme that produces 1 nmol of pregnenolone acetate per minute at 30° C., in the conditions described above.", "units": {"Relative activity (%), Substrate a)": "%"}, "values": [
      {"compound": "CC(=O)[C@H]1CC[C@H]2[C@@H]3CCC4=C[C@@H](O)CC[C@]4(C)[C@H]3CC[C@]12C", "note": "[4-pregnen-3βol-20-one]", "Relative activity (%), Substrate a)": 70},
      {"compound": "CC(=O)[C@H]1CC[C@H]2[C@@H]3CC[C@@H]4C[C@@H](O)CC[C@]4(C)[C@H]3CC[C@]12C", "note": "[5β-pregnan-3βol-20-one]", "Relative activity (%), Substrate a)": 1.8},
      {"compound": "CC(=O)[C@@]1(O)CC[C@H]2[C@@H]3CC=C4C[C@@H](O)CC[C@]4(C)[C@H]3CC[C@@]21C", "note": "[17α-OH pregnenolone, 17α-hydroxypregnenolone]", "Relative activity (%), Substrate a)": 89},
      {"compound": "C[C@]12CC[C@@H]3c4ccc(O)cc4CC[C@H]3[C@@H]1CC[C@@H]2O", "note": "[17β-oestradiol]", "Relative activity (%), Substrate a)": 5},
      {"compound": "C[C@]12CC[C@H](O)CC1=CC[C@@H]1[C@@H]2CC[C@]2(C)C(=O)CC[C@@H]12", "note": "[DHEA, dehydroepiandrosterone]", "Relative activity (%), Substrate a)": 104},
      {"compound": "CC(=O)[C@H]1CC[C@H]2[C@@H]3CC=C4C[C@@H](O)CC[C@]4(C)[C@H]3CC[C@]12C", "note": "[Pregnenolone]", "Relative activity (%), Substrate a)": 100},
      {"compound": "CC(C)CCC[C@@H](C)[C@H]1CC[C@H]2[C@@H]3CC=C4C[C@@H](O)CC[C@]4(C)[C@H]3CC[C@]12C", "note": "[cholesterol]", "Relative activity (%), Substrate a)": 0.6},
      {"compound": "CC(C)[C@@H](C)/C=C/[C@@H](C)[C@H]1CC[C@H]2C3=CC=C4C[C@@H](O)CC[C@]4(C)[C@H]3CC[C@]12C", "note": "[ergosterol]", "Relative activity (%), Substrate a)": 0.4},
      {"compound": "C[C@]12CC[C@@H]3c4ccc(O)cc4CC[C@H]3[C@@H]1CCC2=O", "note": "[oestrone]", "Relative activity (%), Substrate a)": 2.5}
    ]},
    {"target": "T1, APAT (acetyl-coenzyme A pregnenolone acetyltransferase)", "test": "Test of APAT enzyme activity (semi-purified APAT; substrate specificity and inhibition)", "assay_type": "biochemical, S. cerevisiae", "settings": "100 μM of each acyl donor and 30 μM of [3H]pregnenolone; semi-purified APAT", "experimental": "as §1, §2, §3", "values": [
      {"compound": "CCCC(=O)SCCNC(=O)CCNC(=O)[C@H](O)C(C)(C)COP(=O)(O)OP(=O)(O)OC[C@H]1O[C@@H](n2cnc3c(N)ncnc32)[C@H](O)[C@@H]1OP(=O)(O)O", "note": "[butyryl-CoA]", "Relative activity (%), Substrate b)": "16%"},
      {"compound": "CCCCCC(=O)SCCNC(=O)CCNC(=O)[C@H](O)C(C)(C)COP(=O)(O)OP(=O)(O)OC[C@H]1O[C@@H](n2cnc3c(N)ncnc32)[C@H](O)[C@@H]1OP(=O)(O)O", "note": "[hexanoyl-CoA]", "Relative activity (%), Substrate b)": "18%"},
      {"compound": "CCCCCCCC/C=C\\CCCCCCCC(=O)SCCNC(=O)CCNC(=O)[C@H](O)C(C)(C)COP(=O)(O)OP(=O)(O)OC[C@H]1O[C@@H](n2cnc3c(N)ncnc32)[C@H](O)[C@@H]1OP(=O)(O)O", "note": "[oleoyl-CoA]", "Relative activity (%), Substrate b)": "not detected"},
      {"compound": "CCC(=O)SCCNC(=O)CCNC(=O)[C@H](O)C(C)(C)COP(=O)(O)OP(=O)(O)OC[C@H]1O[C@@H](n2cnc3c(N)ncnc32)[C@H](O)[C@@H]1OP(=O)(O)O", "note": "[propionyl-CoA]", "Relative activity (%), Substrate b)": "33%"}
    ]},
    {"target": "T1, APAT (acetyl-coenzyme A pregnenolone acetyltransferase)", "test": "Test of APAT enzyme activity (semi-purified APAT; substrate specificity and inhibition)", "assay_type": "biochemical, S. cerevisiae", "settings": "reagents of sulfhydryl groups", "experimental": "as §1, §2, §3", "values": [
      {"compound": "O=C(O)c1cc(SSc2ccc([N+](=O)[O-])c(C(=O)O)c2)ccc1[N+](=O)[O-]", "note": "[DTNB]", "Inhibition of APAT activity": "strongly inhibited"},
      {"compound": "CCN1C(=O)C=CC1=O", "note": "[NEM]", "Inhibition of APAT activity": "strongly inhibited"}
    ]},
    {"target": "T1, APAT (acetyl-coenzyme A pregnenolone acetyltransferase)", "test": "Test of APAT enzyme activity (semi-purified APAT; substrate specificity and inhibition)", "assay_type": "biochemical, S. cerevisiae", "settings": "zinc chloride 1 mM", "experimental": "as §1, §2, §3", "values": [
      {"compound": "[Cl-].[Cl-].[Zn+2]", "note": "[zinc chloride]", "Inhibition of APAT activity": "complete"}
    ]}
  ]
}
